Here are results for eight compounds from patent publication US11312737B2, “Amide-linked EP4 agonist-bisphosphonate compounds and uses thereof” (SIMON FRASER UNIVERSITY, priority 2015, dated 2022).

One series deals with leukocytes. Nature of the series: Neutrophil function effects. The format is cell-based. Conditions: for neutrophil speed / activity in leukocytes (neutrophil function): FIG. 13.
Series [1] can be described thus: Stability of conjugate compounds in rat plasma. Particulars: fresh rat plasma, 37° C., 100 μg/mL.
Procedure: The amide-linked conjugate compounds were examined for their stability in rat plasma. […] The mixture was then incubated at 37° C. for 24 h. Aliquots of 10 μL were removed at 0, 2, 4, 6, 7 and 24 h, mixed to 10 mg of bone powder and 10-fold diluted with water in a 0.6 mL Eppendorf tube. A gentle stirring was applied for 20 min. 50 μL were then used to count the activity.
Series [2] in a line: In vivo uptake and release studies of tritium labelled C3-conjugate over 28 days. Conditions: rat. Here is the method:
In vivo uptake and release studies using tritium labelled C3-conjugate compound were performed. After intravenous dosing of 1-5 μCi/5 mg/kg of [^3H]-C3 to 15 rats, groups of 3 rats were euthanized at each time point a at t=6 h, 24 h, 7 d, 14 d, 28 d). The radioactivity in blood samples, spleen, liver and long bones was counted for each group of rats. […] After one week, 53% of label was eliminated and only traces were detected after 28 days (FIG. 6). In spleen, the counted radioactivity decreased from 1% 6 hours after dosing to 0.4% at t=28 days (FIG. 6).

Series [3] can be described thus: In vivo uptake studies of tritium labelled C3, C4 and C5-conjugates 6 hours after dosing. Particulars: rat; for % of the initial dose found in muscle: 6 hours after dosing; for uptake into long bones, % of initial dose: 6 hours after injection, tritium label. Here is the method:
The three conjugate compounds, C3, C4 and C5, were radiolabelled with tritium in the EP4 agonist moiety and used to monitor in vivo distribution in rat organs and uptake into bone after intravenous dosing.
The radioactivity in organs (heart, kidney, brain, muscle, one piece of muscle attached to bone, spleen and liver) was counted 6 hours after dosing (FIG. 3). For the C3-conjugate compound, calculations were done based on results obtained from two rats. Most of the labelled conjugate compounds were taken up into liver (65-74%), and about 1% and 0.2% were found in spleen and kidneys for all labelled conjugate compounds, after 6 hours. About 0.2% of the initial dose of the C4 and C5-conjugate compounds, and 2% of the C3-conjugate compound, was found in muscle. All other organs contained 0.05% of the initial dose of the conjugate compounds.
Finally, the uptake of the tritiated C3, C4 and C5-conjugate compounds into bones was counted (FIG. 4). All three conjugate compounds were well taken up into bone.

SMILES strings stand for the structures.

Regarding `CCOC(=O)CCCCCCN1C(=O)CC[C@@H]1/C=C/[C@@H](OC(=O)Cc1ccc(C(=O)NCCCC(O)(P(=O)(O)O)P(=O)(O)O)cc1)C(F)(F)c1ccccc1` [C3-conjugate, Sodium (4-(4-(2-(((R,E)-4-((R)-1-(7-ethoxy-7-oxoheptyl)-5-oxopyrrolidin-2-yl)-1,1-difluoro-1-phenylbut-3-en-2-yl)oxy)-2-oxoethyl)benzamido)-1-hydroxybutane-1,1-diyl)bis(hydrogen phosphonate)], the neutrophil speed result with leukocytes was “low neutrophil speed”. Further, the “hydrolysis after 24 h-incubation” value in series [1] is “About 10%”. Moreover, the “counted radioactivity in spleen” value in series [2] (6 hours after dosing) came to 1%; in series [2] (t=28 days), 0.4%. Also, the “tritiated conjugate found in liver” value in series [2] (6 hours after injection) is recorded as 69%. The entries for the “tritiated conjugate in liver” value in series [2] (after 24 hours) and in series [2] (after 28 days) were “remained in a high proportion” and “only traces”, respectively. In addition, the “conjugate remained attached to bone” value in series [2] (after 7 days, tritium label) turned out to be 5.5%. Besides, in series [2] (after one week), the “label eliminated from liver” value was found to be 53%. Also, in series [2] (calculated from bone data over 28 days), the “half-life (tritium label on bone)” value is recorded as “about 8 days”. Moreover, in series [2] (end of the study (28 days), tritium label), the “% of the initial dose observed in bone” value amounted to 1.4%. In addition, the “activity detected in the bloodstream” value in series [2] (over 28 days, tritium label) was “Very low activity”. Also, the clearance from plasma result in series [2] (tritium label) was “rapid clearance”. Moreover, the “% of the initial dose found in muscle” value in series [3] is given as about 2%.

On to `CCOC(=O)CCCCCCN1C(=O)CC[C@@H]1/C=C/[C@@H](OC(=O)Cc1ccc(C(=O)NCCC(O)(P(=O)(O)O)P(=O)(O)O)cc1)C(F)(F)c1ccccc1` [C4-conjugate, Sodium (3-(4-(2-(((R,E)-4-((R)-1-(7-ethoxy-7-oxoheptyl)-5-oxopyrrolidin-2-yl)-1,1-difluoro-1-phenylbut-3-en-2-yl)oxy)-2-oxoethypbenzamido)-1-hydroxypropane-1,1-diyl)bis(hydrogen phosphonate)], for which the “activity in leukocytes (neutrophil function)” value (“activity in leukocytes” for short) with leukocytes is listed as “active”. Further, in series [3], the “% of the initial dose found in muscle” value is listed as “About 0.2%” and the “uptake into long bones, % of initial dose” value is given as “about 10%”.

`CCOC(=O)CCCCCCN1C(=O)CC[C@@H]1/C=C/[C@@H](OC(=O)Cc1ccc(C(=O)NCCCCCC(O)(P(=O)(O)O)P(=O)(O)O)cc1)C(F)(F)c1ccccc1` [C5-conjugate, Sodium (6-(4-(2-(((R,E)-4-((R)-1-(7-ethoxy-7-oxoheptyl)-5-oxopyrrolidin-2-yl)-1,1-difluoro-1-phenyibut-3-en-2-yl)oxy)-2-oxoethyl)benzamido)-1-hydroxyhexane-1,1-diyl)bis(hydrogen phosphonate)]: in series [3], the “% of the initial dose found in muscle” value was “About 0.2%” and the “uptake into long bones, % of initial dose” value is given as “about 10%”.

As to `CCOC(=O)CCCCCCN1C(=O)CC[C@@H]1/C=C/[C@@H](O)C(F)(F)c1ccccc1` [EP4 agonist, ethyl 7-((R)-2-((R,E)-4,4-difluoro-3-hydroxy-4-phenylbut-1-en-1-yl)-5-oxopyrrolidin-1-yl)heptanoate], in the series with leukocytes, the neutrophil speed result is “low neutrophil speed”.

For `NCCCC(O)(P(=O)(O)O)P(=O)(O)O` [alendronate, 4-amino-1-hydroxybutylidene-1,1-bisphosphonic acid monosodium trihydrate, reference compound], the “activity in leukocytes” value in the series on leukocytes is “active”.

As to `O=C(O)Cc1ccc(C(=O)NCCCC(O)(P(=O)(O)O)P(=O)(O)O)cc1` [fragment 4, Sodium 2-(4-((4-hydroxy-4,4-bis(hydroxyoxidophosphoryl)butyl)carbamoyl)phenyl)acetate], in the series on leukocytes, the “biological activity compared to alendronate alone” value is “biologically inactive” and the “activity in leukocytes” value is “neither fragment 4 nor 5 exhibited significant activity”.

As for `O=C(O)Cc1ccc(C(=O)NCCC(O)(P(=O)(O)O)P(=O)(O)O)cc1` [fragment 5, Sodium2-(4-((3-hydroxy-3,3-bis(hydroxyoxidophosphoryl)propyl)carbamoyl)phenyl)acetate], in the series on leukocytes, the “activity in leukocytes” value was “neither fragment 4 nor 5 exhibited significant activity”.

Turning to `NCCC(O)(P(=O)(O)O)P(=O)(O)O` [pamidronate, 3-amino-1-hydroxypropylidene-1,1-bisphosphonic acid, reference compound], the “activity in leukocytes” value in the series on leukocytes is “active”.
